{
  "source": "paper PMC4104761",
  "about": "“Identification of a novel lytic peptide for the treatment of solid tumours” (Genes & Cancer, 2014)",
  "test_system": "BALB/c mice",
  "experiment": "In vivo toxicity after tail vein injection",
  "design": "species or system mouse",
  "conditions": "100 µl bolus per animal",
  "description": "Cypep-1 was injected into the lateral tail vein of 37 BALB/c mice (average age 131,7 days; average weight 25.2 g). In detail, the group consisted of 18 male (average weight 26.5g) and 19 female animals (average weight 23.9g). The respective peptide concentrations administered were increased systematically from 50µg up to 800µg Cypep-1 per bolus per animal. All Cypep-1 doses were adjusted to a total injection volume of 100µl 0,9% NaCl, which remained constant for all animals. Throughout the experiment, a group of 4 animals (2 males/ 2 females) received the same Cypep-1 concentrations per bolus, respectively. All injections were performed very slowly in order to avoid cardiac stress. The mice were then observed for a period of 24h with regards to signs of distress and pain (e.g. orbital tightening, flattened ear position, formation of nose and/or cheek bulge, whisker change, overall activity level) as well as potential toxic effects. During the first 2 hours, the animals were monitored continuously and then checked again at 4 h, 6 h, 12 h and 24 h post injection.",
  "data": [
    {"sequence": "YGRKKRRQRRRGKTLRVAKAIYKRYIE [Cypep-1]", "values": [
      {"measurement": "dose with first signs of toxicity (seizure-like catatonic stupor)", "setting": "slow tail vein injection", "value": 600, "unit": "µg"},
      {"measurement": "dose with no signs of distress or pain", "setting": "slow tail vein injection, 24 h observation", "value": "up to 500 µg"},
      {"measurement": "lethal dose", "setting": "tail vein injection, death within 5 - 10 min", "value": 800, "unit": "µg"}
    ]}
  ]
}
